The record followed here is US20200291096A1, “BICYCLIC PEPTIDE LIGAND STING CONJUGATES AND USES THEREOF” (priority 2017, published 2020).

Starred links: 1 amine or outer side, 2 acyl side, 3 side chain; linkers in the order of their positions; H or OH if unused. Positions of bridges follow the written chain, without caps; N, C: chain ends. Non-standard residues stand in square brackets, D forms with d. Residues, ends and D or L forms follow the SMILES beside them. 1Nal = N[C@@H](Cc1cccc2ccccc12)C(=O)O; TBMB = c1c(C[*:1])cc(C[*:3])cc1C[*:2]; Tle = CC(C)(C)[C@H](N)C(=O)O; βAla = NCCC(=O)O; Sar = CNCC(=O)O

One experiment deals with MMP15 (Homo sapiens, UniProt P51511). Put plainly: Binding to related MMP family member MMP15.
For the next experiment, the target named is MMP16 (Homo sapiens, UniProt P51512). Briefly: Binding to related MMP family member MMP16.
Experiment [1] concerns the target T1, MMP1 (Homo sapiens, UniProt P03956).
T1 sequence (P03956 100-469): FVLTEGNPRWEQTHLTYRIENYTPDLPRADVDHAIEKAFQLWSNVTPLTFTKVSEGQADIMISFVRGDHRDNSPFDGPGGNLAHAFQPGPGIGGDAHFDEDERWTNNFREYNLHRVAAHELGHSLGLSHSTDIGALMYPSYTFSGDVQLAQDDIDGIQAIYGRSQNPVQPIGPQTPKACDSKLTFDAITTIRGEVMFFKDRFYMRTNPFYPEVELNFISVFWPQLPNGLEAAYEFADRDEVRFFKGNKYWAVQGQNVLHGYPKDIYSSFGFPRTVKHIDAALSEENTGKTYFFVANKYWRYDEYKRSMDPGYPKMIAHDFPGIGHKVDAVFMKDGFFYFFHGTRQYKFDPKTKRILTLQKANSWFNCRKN
Briefly: Effect on MMP1 catalytic activity. As to conditions: in vitro. The experiment is classed as biochemical.

Experiment [2] has as its target T1, MMP1. Briefly: Binding to related MMP family member MMP1.
A further experiment concerns the target T2, Pro-MMP1 (Homo sapiens, UniProt P03956).
T2 sequence (P03956 20-469 limits assumed): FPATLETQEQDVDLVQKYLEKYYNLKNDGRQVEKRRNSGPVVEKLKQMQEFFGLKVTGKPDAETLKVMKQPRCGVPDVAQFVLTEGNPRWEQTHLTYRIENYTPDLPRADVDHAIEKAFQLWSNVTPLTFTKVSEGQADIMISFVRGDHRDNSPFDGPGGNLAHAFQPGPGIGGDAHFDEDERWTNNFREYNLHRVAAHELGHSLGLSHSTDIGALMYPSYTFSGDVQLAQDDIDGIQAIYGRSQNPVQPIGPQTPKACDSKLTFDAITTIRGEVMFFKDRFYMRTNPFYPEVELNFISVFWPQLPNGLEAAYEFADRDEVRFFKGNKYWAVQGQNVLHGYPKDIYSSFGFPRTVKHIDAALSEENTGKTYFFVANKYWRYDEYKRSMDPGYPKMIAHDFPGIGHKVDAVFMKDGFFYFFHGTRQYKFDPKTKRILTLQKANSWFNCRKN
Put plainly: Binding to related MMP family member Pro-MMP1.

The test system of the next experiment is catalytic domain (MT1). Put plainly: Binding to catalytic domain of MT1.
Experiment [3] addresses T3, MMP2 (Homo sapiens, UniProt P08253).
T3 sequence (P08253 110-660): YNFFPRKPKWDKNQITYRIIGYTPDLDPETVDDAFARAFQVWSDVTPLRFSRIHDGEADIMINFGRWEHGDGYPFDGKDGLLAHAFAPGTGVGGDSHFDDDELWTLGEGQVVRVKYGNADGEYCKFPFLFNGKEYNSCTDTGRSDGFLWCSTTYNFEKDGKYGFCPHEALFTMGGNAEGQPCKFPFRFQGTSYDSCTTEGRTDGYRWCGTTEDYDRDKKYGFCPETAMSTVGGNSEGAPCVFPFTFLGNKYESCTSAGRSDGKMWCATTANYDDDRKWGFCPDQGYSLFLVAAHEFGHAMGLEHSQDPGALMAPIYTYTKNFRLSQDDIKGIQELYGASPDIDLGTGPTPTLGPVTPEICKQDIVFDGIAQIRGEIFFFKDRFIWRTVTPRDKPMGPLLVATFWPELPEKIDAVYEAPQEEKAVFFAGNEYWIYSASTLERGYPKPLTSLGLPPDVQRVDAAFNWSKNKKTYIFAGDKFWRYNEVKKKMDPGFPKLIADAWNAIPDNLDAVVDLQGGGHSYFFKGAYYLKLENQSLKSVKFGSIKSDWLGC
Briefly: Binding to related MMP family member MMP2.

The target of the next experiment is MMP9 (Homo sapiens, UniProt P14780). Put plainly: Effect on MMP9 catalytic activity. Format: biochemical. As to conditions: in vitro.
A further experiment has as its target MT1 (Homo sapiens, UniProt P50281). Briefly: Effect on catalytic activity of MT1 in vitro. Format: biochemical.
For experiment [4], the target named is T3, MMP2. Put plainly: Effect on MMP2 catalytic activity. Particulars: in vitro. Format: biochemical.
The subject of experiment [5] is cell migration or invasion. Put plainly: Effect on cell migration or invasion. Particulars: in vitro. Format: cell-based.
For the next experiment, the target named is MMP24 (Homo sapiens, UniProt Q9Y5R2). Put plainly: Binding to related MMP family member MMP24.
Chain of MMP24 (Q9Y5R2 156-645, species assumed): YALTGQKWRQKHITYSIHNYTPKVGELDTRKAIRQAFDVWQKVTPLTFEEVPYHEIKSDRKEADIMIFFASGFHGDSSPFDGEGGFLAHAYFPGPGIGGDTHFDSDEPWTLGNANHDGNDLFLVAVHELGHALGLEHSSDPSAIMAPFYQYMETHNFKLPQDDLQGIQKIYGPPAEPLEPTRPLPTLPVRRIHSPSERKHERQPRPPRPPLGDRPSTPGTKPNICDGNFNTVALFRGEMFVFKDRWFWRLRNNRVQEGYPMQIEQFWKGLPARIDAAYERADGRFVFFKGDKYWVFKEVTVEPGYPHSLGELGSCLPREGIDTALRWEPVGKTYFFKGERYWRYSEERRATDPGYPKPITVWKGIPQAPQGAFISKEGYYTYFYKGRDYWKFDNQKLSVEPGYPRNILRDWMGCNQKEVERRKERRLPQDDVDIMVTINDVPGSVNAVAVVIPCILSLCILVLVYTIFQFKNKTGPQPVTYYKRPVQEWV

Chain of MMP16 (P51512 120-607, species assumed): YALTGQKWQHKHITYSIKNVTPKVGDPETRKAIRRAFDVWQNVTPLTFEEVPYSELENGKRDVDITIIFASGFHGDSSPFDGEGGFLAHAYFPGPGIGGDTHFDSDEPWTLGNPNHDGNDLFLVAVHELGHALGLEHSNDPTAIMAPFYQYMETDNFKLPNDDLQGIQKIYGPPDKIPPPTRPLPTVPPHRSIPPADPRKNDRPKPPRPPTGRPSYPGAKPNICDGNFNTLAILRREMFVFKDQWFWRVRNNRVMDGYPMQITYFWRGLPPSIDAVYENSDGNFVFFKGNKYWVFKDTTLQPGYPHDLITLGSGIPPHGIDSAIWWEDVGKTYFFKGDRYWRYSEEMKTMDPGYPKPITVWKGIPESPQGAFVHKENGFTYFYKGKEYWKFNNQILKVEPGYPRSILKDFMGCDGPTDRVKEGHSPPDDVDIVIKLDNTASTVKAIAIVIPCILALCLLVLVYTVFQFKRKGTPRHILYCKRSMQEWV
Chain of MMP9 (P14780 94-707, species assumed): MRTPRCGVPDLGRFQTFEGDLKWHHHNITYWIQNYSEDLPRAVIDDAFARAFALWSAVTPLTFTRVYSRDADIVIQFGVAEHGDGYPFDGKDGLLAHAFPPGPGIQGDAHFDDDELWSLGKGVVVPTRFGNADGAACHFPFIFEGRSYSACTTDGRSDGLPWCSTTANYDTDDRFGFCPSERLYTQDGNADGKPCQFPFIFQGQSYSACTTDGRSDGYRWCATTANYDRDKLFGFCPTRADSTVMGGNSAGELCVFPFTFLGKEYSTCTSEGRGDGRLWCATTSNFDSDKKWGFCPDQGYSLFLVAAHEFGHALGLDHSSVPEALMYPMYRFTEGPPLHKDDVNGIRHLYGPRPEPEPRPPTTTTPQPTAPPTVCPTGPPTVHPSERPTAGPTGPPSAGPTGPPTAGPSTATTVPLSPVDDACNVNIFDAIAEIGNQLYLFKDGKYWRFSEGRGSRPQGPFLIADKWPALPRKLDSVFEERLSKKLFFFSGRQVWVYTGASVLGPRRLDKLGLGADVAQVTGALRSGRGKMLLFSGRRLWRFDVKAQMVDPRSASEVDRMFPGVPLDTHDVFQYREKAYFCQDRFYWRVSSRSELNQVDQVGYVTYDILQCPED
Chain of MMP15 (P51511 132-669, species assumed): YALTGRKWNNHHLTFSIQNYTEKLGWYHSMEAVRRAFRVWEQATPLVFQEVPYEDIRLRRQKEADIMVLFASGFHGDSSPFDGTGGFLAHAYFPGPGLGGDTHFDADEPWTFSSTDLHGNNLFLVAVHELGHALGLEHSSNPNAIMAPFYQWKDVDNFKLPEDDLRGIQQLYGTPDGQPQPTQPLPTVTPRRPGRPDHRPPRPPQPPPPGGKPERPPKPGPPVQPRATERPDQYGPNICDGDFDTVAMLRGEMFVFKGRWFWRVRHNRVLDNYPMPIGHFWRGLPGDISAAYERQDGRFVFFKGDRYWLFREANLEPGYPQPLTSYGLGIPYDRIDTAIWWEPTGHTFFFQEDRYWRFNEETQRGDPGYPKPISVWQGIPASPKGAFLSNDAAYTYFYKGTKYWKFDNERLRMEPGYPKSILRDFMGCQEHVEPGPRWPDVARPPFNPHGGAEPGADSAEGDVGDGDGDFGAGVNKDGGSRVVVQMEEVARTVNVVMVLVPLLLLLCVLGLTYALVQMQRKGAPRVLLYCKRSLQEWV

`C[C@H](NC(=O)CN(C)C(=O)CN(C)C(=O)CN(C)C(=O)CN(C)C(=O)CN(C)C(=O)CN(C)C(=O)CN(C)C(=O)CN(C)C(=O)CN(C)C(=O)CN(C)C(=O)CCN)C(=O)N[C@H]1CSCc2cc3cc(c2)CSC[C@H](NC(=O)[C@@H](C)NC(=O)[C@H](Cc2cccc4ccccc24)NC(=O)[C@H](CCC(=O)O)NC(=O)[C@H](CC(N)=O)NC(=O)[C@@H](C)NC1=O)C(=O)N[C@@H](CCC(=O)O)C(=O)N[C@@H](CC(=O)O)C(=O)N[C@@H](Cc1ccccc1)C(=O)N[C@@H](Cc1ccc(O)cc1)C(=O)N[C@@H](CC(=O)O)C(=O)N[C@@H](C(C)(C)C)C(=O)N[C@H](C(N)=O)CSC3` [N241] (H-[βAla][Sar][Sar][Sar][Sar][Sar][Sar][Sar][Sar][Sar][Sar]AC[dA]NE[1Nal][dA]CEDFYD[Tle]C-NH2; linker 13-19-26 via TBMB; N-terminus and C-terminus assumed): the “binding toward MMP15” value on MMP15 is on record as “no binding”. Besides, the “binding toward MMP16” value on MMP16 was “no binding”. Further, at MMP1 [1], the “impact on MMP1 catalytic activity” value was “no direct impact”. Moreover, at MMP1 [2], the “binding toward MMP1” value is listed as “no binding”. Moreover, on Pro-MMP1, the “binding toward Pro-MMP1” value is reported as “no binding”. The “binding to the catalytic domain” value in the experiment on catalytic domain (MT1) is on record as “no binding”. For the same compound, the “binding toward MMP2” value at MMP2 [3] is “no binding”. The “impact on MMP9 catalytic activity” value at MMP9 is on record as “no direct impact”. Besides, the “impact on the catalytic activity of the protease (MT1)” value on MT1 is reported as “no direct impact”. Further, the “impact on MMP2 catalytic activity” value at MMP2 [4] is recorded as “no direct impact”. For the same compound, in experiment [5], the “impact on cell migration or invasion” value was “no direct impact”. The “binding toward MMP24” value at MMP24 is listed as “no binding”.
